Among the data in BindingDB's records for doi:10.7270/Q22J699S (Nmmlsc, 2010) are EC50 values, retold here.

The target in this test is Guanine nucleotide-binding protein G(o) subunit alpha (Homo sapiens, UniProt P09471). The test can be described thus: RGS8-Galphao interaction regulators, SAR follow-up, biochemical, multiplexed bead assay, additional SAR round (AID 2827).
Sequence of Guanine nucleotide-binding protein G(o) subunit alpha (P09471 whole entry): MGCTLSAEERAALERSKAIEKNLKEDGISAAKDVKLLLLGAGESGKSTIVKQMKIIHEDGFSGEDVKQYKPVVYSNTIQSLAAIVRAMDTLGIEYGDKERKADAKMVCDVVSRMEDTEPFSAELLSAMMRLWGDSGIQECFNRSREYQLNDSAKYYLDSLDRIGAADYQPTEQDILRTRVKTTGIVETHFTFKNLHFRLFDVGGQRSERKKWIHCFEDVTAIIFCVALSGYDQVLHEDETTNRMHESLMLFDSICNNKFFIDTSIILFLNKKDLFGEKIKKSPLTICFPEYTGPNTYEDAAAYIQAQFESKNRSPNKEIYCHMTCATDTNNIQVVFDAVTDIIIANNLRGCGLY

One may read the EC50 as the midpoint of the concentration-response curve. High values mean a need for much substance, low ones an effect from little substance. Consider `O=C(c1sc2cc([N+](=O)[O-])ccc2c1Cl)N1CCNCC1`, for which the 50% effective concentration (EC50) was over 30 µM.

Take `O=C(NCCCn1ccnc1)c1sc2cc([N+](=O)[O-])ccc2c1Cl` [3-chloro-N-[3-(1-imidazolyl)propyl]-6-nitro-1-benzothiophene-2-carboxamide]: the EC50 is over 30 µM.

As for `O=C(NCCCN1CCOCC1)c1sc2cc([N+](=O)[O-])ccc2c1Cl` [3-chloranyl-N-(3-morpholin-4-ylpropyl)-6-nitro-1-benzothiophene-2-carboxamide], the EC50 was over 30 µM.

`NC(=O)c1sc2cc([N+](=O)[O-])ccc2c1Cl` [KSC-1-100] came in with an EC50 of over 30 µM.

The molecule `Cc1ccc2c(Cl)c(C(=O)NCCCN3CCOCC3)sc2c1` [KUC103874N] returned an EC50 of over 30 µM.
